# According to PubChem BioAssay (NCI):
#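 Protocol summary: plate cells (96-well), add compound at 5 concentrations, incubate 48 h, interpolate endpoints linearly. Abbreviation: GI50, concentration required for 50% inhibition of growth. TGI: total growth inhibition.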
# Key:
# Assay in all cases: NCI-60 cell line screen, 48 h
# PC-3 prostate = system: PC-3 prostate
# HCT-15 colon = system: HCT-15 colon
# T-47D breast = system: T-47D breast
# SK-OV-3 ovarian = system: SK-OV-3 ovarian
# SW-620 colon = system: SW-620 colon
# HOP-92 NSCLC = system: HOP-92 NSCLC
# A549 NSCLC = system: A549 NSCLC
# NCI-H522 lung = system: NCI-H522 lung
# CCRF-CEM leukemia = system: CCRF-CEM leukemia
# LOX IMVI melanoma = system: LOX IMVI melanoma
# NCI-H460 lung = system: NCI-H460 lung
# SK-MEL-28 melanoma = system: SK-MEL-28 melanoma
# MDA-MB-231 breast = system: MDA-MB-231 breast
# HCT-116 colon = system: HCT-116 colon
# M14 melanoma = system: M14 melanoma
# 786-0 renal = system: 786-0 renal
# OVCAR-5 ovarian = system: OVCAR-5 ovarian
# SF-295 CNS = system: SF-295 CNS
# BT-549 breast = system: BT-549 breast
# U251 CNS = system: U251 CNS
# A498 renal = system: A498 renal
# MCF7 breast = system: MCF7 breast
# SK-MEL-5 melanoma = system: SK-MEL-5 melanoma
# ACHN renal = system: ACHN renal
# HCC-2998 colon = system: HCC-2998 colon
# CAKI-1 renal = system: CAKI-1 renal
# OVCAR-4 ovarian = system: OVCAR-4 ovarian
# EKVX NSCLC = system: EKVX NSCLC
# DU-145 prostate = system: DU-145 prostate
# RPMI-8226 leukemia = system: RPMI-8226 leukemia
# SNB-19 CNS = system: SNB-19 CNS
# COLO 205 colon = system: COLO 205 colon
# HOP-62 NSCLC = system: HOP-62 NSCLC
# NCI/ADR-RES ovarian = system: NCI/ADR-RES ovarian
# MALME-3M melanoma = system: MALME-3M melanoma
# IGROV1 ovarian = system: IGROV1 ovarian
# OVCAR-8 ovarian = system: OVCAR-8 ovarian
# K-562 leukemia = system: K-562 leukemia
# SNB-75 CNS = system: SNB-75 CNS
# UO-31 renal = system: UO-31 renal
# SF-539 CNS = system: SF-539 CNS
# SF-268 CNS = system: SF-268 CNS
# SN12C renal = system: SN12C renal
# SK-MEL-2 melanoma = system: SK-MEL-2 melanoma
# MOLT-4 leukemia = system: MOLT-4 leukemia
# OVCAR-3 ovarian = system: OVCAR-3 ovarian
# TK-10 renal = system: TK-10 renal
# HS 578T breast = system: HS 578T breast
# NCI-H226 lung = system: NCI-H226 lung
# RXF 393 renal = system: RXF 393 renal
# NCI-H23 lung = system: NCI-H23 lung
# SR leukemia = system: SR leukemia
# UACC-257 melanoma = system: UACC-257 melanoma
# UACC-62 melanoma = system: UACC-62 melanoma
# KM12 colon = system: KM12 colon
# MDA-MB-435 = system: MDA-MB-435
# HL-60(TB) leukemia = system: HL-60(TB) leukemia
# HT29 colon = system: HT29 colon
smiles,measurement,setting,value
O=C1[C@@H]2Cc3c([nH]c4ccccc34)[C@H](c3c(Cl)cccc3Cl)N2C(=O)CN1C1CCN(Cc2ccccc2)CC1,GI50,PC-3 prostate,3.06 µM
same,TGI,PC-3 prostate,10.7 µM
same,GI50,HCT-15 colon,2520 nM
same,TGI,HCT-15 colon,5.09 µM
same,GI50,T-47D breast,2590 nM
same,TGI,T-47D breast,7.95 µM
same,GI50,SK-OV-3 ovarian,2850 nM
same,TGI,SK-OV-3 ovarian,8.47 µM
same,GI50,SW-620 colon,2930 nM
same,TGI,SW-620 colon,7.19 µM
same,GI50,HOP-92 NSCLC,1550 nM
same,TGI,HOP-92 NSCLC,7.25 µM
same,GI50,A549 NSCLC,2680 nM
same,TGI,A549 NSCLC,7.2 µM
same,GI50,NCI-H522 lung,2950 nM
same,TGI,NCI-H522 lung,7.7 µM
same,GI50,CCRF-CEM leukemia,4.33 µM
same,TGI,CCRF-CEM leukemia,> 14.3 µM
same,GI50,LOX IMVI melanoma,2210 nM
same,TGI,LOX IMVI melanoma,4.54 µM
same,GI50,NCI-H460 lung,2820 nM
same,TGI,NCI-H460 lung,5.68 µM
same,GI50,SK-MEL-28 melanoma,2370 nM
same,TGI,SK-MEL-28 melanoma,4.55 µM
same,GI50,MDA-MB-231 breast,2570 nM
same,TGI,MDA-MB-231 breast,6.27 µM
same,GI50,HCT-116 colon,2600 nM
same,TGI,HCT-116 colon,5.49 µM
same,GI50,M14 melanoma,2420 nM
same,TGI,M14 melanoma,6.47 µM
same,GI50,786-0 renal,2500 nM
same,TGI,786-0 renal,4.7 µM
same,GI50,OVCAR-5 ovarian,3.12 µM
same,TGI,OVCAR-5 ovarian,9.29 µM
same,GI50,SF-295 CNS,2460 nM
same,TGI,SF-295 CNS,4.62 µM
same,GI50,BT-549 breast,2220 nM
same,TGI,BT-549 breast,5.17 µM
same,GI50,U251 CNS,2340 nM
same,TGI,U251 CNS,4.63 µM
same,GI50,A498 renal,3.49 µM
same,TGI,A498 renal,12.4 µM
same,GI50,MCF7 breast,2130 nM
same,TGI,MCF7 breast,4.61 µM
same,GI50,SK-MEL-5 melanoma,2400 nM
same,TGI,SK-MEL-5 melanoma,4.82 µM
same,GI50,ACHN renal,2190 nM
same,TGI,ACHN renal,4.15 µM
same,GI50,HCC-2998 colon,2270 nM
same,TGI,HCC-2998 colon,4.72 µM
same,GI50,CAKI-1 renal,1810 nM
same,TGI,CAKI-1 renal,4.79 µM
same,GI50,OVCAR-4 ovarian,2420 nM
same,TGI,OVCAR-4 ovarian,5.1 µM
same,GI50,EKVX NSCLC,6.78 µM
same,TGI,EKVX NSCLC,> 14.3 µM
same,GI50,DU-145 prostate,4.55 µM
same,TGI,DU-145 prostate,> 14.3 µM
same,GI50,RPMI-8226 leukemia,2740 nM
same,TGI,RPMI-8226 leukemia,8.28 µM
same,GI50,SNB-19 CNS,5.25 µM
same,TGI,SNB-19 CNS,> 14.3 µM
same,GI50,COLO 205 colon,4.09 µM
same,TGI,COLO 205 colon,> 14.3 µM
same,GI50,HOP-62 NSCLC,2290 nM
same,TGI,HOP-62 NSCLC,5.66 µM
same,GI50,NCI/ADR-RES ovarian,2780 nM
same,TGI,NCI/ADR-RES ovarian,6.86 µM
same,GI50,MALME-3M melanoma,2300 nM
same,TGI,MALME-3M melanoma,4.87 µM
same,GI50,IGROV1 ovarian,2070 nM
same,TGI,IGROV1 ovarian,7.52 µM
same,GI50,OVCAR-8 ovarian,3.8 µM
same,TGI,OVCAR-8 ovarian,13.1 µM
same,GI50,K-562 leukemia,2980 nM
same,TGI,K-562 leukemia,7.56 µM
same,GI50,SNB-75 CNS,719 nM
same,TGI,SNB-75 CNS,3.43 µM
same,GI50,UO-31 renal,1430 nM
same,TGI,UO-31 renal,3.15 µM
same,GI50,SF-539 CNS,2370 nM
same,TGI,SF-539 CNS,4.55 µM
same,GI50,SF-268 CNS,2820 nM
same,TGI,SF-268 CNS,10.8 µM
same,GI50,SN12C renal,2350 nM
same,TGI,SN12C renal,5.31 µM
same,GI50,SK-MEL-2 melanoma,4.94 µM
same,TGI,SK-MEL-2 melanoma,> 14.3 µM
same,GI50,MOLT-4 leukemia,3.03 µM
same,TGI,MOLT-4 leukemia,13.8 µM
same,GI50,OVCAR-3 ovarian,2850 nM
same,TGI,OVCAR-3 ovarian,6.83 µM
same,GI50,TK-10 renal,2580 nM
same,TGI,TK-10 renal,5.13 µM
same,GI50,HS 578T breast,2210 nM
same,TGI,HS 578T breast,6.52 µM
same,GI50,NCI-H226 lung,10.6 µM
same,TGI,NCI-H226 lung,> 14.3 µM
same,GI50,RXF 393 renal,1920 nM
same,TGI,RXF 393 renal,3.86 µM
same,GI50,NCI-H23 lung,4.77 µM
same,TGI,NCI-H23 lung,> 14.3 µM
same,GI50,SR leukemia,2320 nM
same,TGI,SR leukemia,6.92 µM
same,GI50,UACC-257 melanoma,2460 nM
same,TGI,UACC-257 melanoma,5.68 µM
same,GI50,UACC-62 melanoma,2260 nM
same,TGI,UACC-62 melanoma,4.66 µM
same,GI50,KM12 colon,4.59 µM
same,TGI,KM12 colon,> 14.3 µM
same,GI50,MDA-MB-435,2360 nM
same,TGI,MDA-MB-435,4.81 µM
same,GI50,HL-60(TB) leukemia,4.03 µM
same,TGI,HL-60(TB) leukemia,13.6 µM
same,GI50,HT29 colon,3.23 µM
same,TGI,HT29 colon,8.02 µM
